Results published in patent US20210309978A1, “POLYNUCLEOTIDE SEQUENCE ENCODING A LOCAL SOURCED NOVEL ESTERASE” (ISTANBUL TEKNIK UNIVERSITESI, priority 2018, published 2021).
Where two headings read alike, the source gives them in different places.

How the values were obtained:
Type in all cases: biochemical, microflora of Ac1göl (Aci Lake)
esterase enzyme [1] = test: Effect of solutions (solvents) on enzyme activity; settings: 10% solution added into the reaction
Experimental: (§1) 6. […] The final concentration of the enzyme and substrate have been 1 μM and 1 mM respectively and absorbance measurements have been taken at 410 nm. The activity has been calculated by means of the below formula and one unit of activity has been defined as the enzyme amount which produces 1 μmol product in 1 minute.
(§2) Activity (U/L)=[(ΔAbs/t)/(ε*d)]*106*Vt/Vs • ΔAbs=Absorbance change; t=time (minute); ε=extinction coefficient (M−1 cm−1); d=light path (cm); Vt=total reaction volume; Vs=enzyme volume used in reaction.
(§3) Additionally, the effect of different solutions (hexane, chloroform, acetone, dimethyl formamide (DMF), dimethyl sulphoxide (DMSO), 2-propanol, butanol, 1-propanol, ethanol, methanol and glycerol) on the activity and stability of the enzyme have been measured. In the activity tests, 10% solution has been added into the reaction and in the stability tests the enzyme has been incubated for 24 hours in a buffer solution containing 15% and 30% solution.

esterase enzyme [2] = test: Effect of solutions (solvents) on enzyme stability (24 hours incubation); settings: for Effect of solutions on stability, Activity (%) 15% Solution: enzyme incubated 24 hours in buffer containing 15% solution; for Effect of solutions on stability, Activity (%) 30% Solution: enzyme incubated 24 hours in buffer containing 30% solution
Experimental: as §1, §2, §3

esterase enzyme [3] = test: Effects of inhibitors and detergents on enzyme activity
esterase enzyme [4] = test: Effect of metals on enzyme activity

Compound	Activity (%) (1 mM inh.) (esterase enzyme [3]; 1 mM inh.)	Activity (%) (5 mM inh.) (esterase enzyme [3]; 5 mM inh.)	Activity (%) (1 mM metal) (esterase enzyme [4]; 1 mM metal)	Activity (%) (5 mM metal) (esterase enzyme [4]; 5 mM metal)	also measured
1-propanol	–	–	–	–	Effect of solutions on activity, Activity (%) (esterase enzyme [1]): 2.6 ± 2.4%; Effect of solutions on stability, Activity (%) 15% Solution (esterase enzyme [2]): 85.7 ± 2.6%; Effect of solutions on stability, Activity (%) 30% Solution (esterase enzyme [2]): 23.3 ± 5.4%
O[C@H](CS)[C@H](O)CS (racemic) [DTT, dithiothreitol]	36.7 ± 2.4	25.1 ± 0.8	–	–	–
CC(C)O [2-Propanol, 2-propanol]	–	–	–	–	Effect of solutions on activity, Activity (%) (esterase enzyme [1]): 21.4 ± 1.6%; Effect of solutions on stability, Activity (%) 15% Solution (esterase enzyme [2]): 104.3 ± 1.2%; Effect of solutions on stability, Activity (%) 30% Solution (esterase enzyme [2]): 62.3 ± 4.3%
CC(C)=O [Acetone, acetone]	–	–	–	–	Effect of solutions on activity, Activity (%) (esterase enzyme [1]): 36 ± 4.9%; Effect of solutions on stability, Activity (%) 15% Solution (esterase enzyme [2]): 113.7 ± 2.5%; Effect of solutions on stability, Activity (%) 30% Solution (esterase enzyme [2]): 85.2 ± 5.6%
O=[N+]([O-])[O-].[Ag+] [AgNO3]	–	–	31.6 ± 6.5	0.0	–
O=S(=O)([O-])[O-].O=S(=O)([O-])[O-].O=S(=O)([O-])[O-].[Al+3].[Al+3] [Al2SO4]	–	–	91.2 ± 9.8	0.0	–
CCCCCCCCCCCCCCCC[N+](C)(C)C.[Br-] [CTAB, cetrimonium bromide]	91 ± 6.6	1.3 ± 0.3	–	–	–
[Ca+2].[Cl-].[Cl-] [CaCl2]	–	–	130.2 ± 1.7	105.1 ± 1.4	–
ClC(Cl)Cl [Chloroform, chloroform]	–	–	–	–	Effect of solutions on activity, Activity (%) (esterase enzyme [1]): 5.1 ± 0.8%; Effect of solutions on stability, Activity (%) 15% Solution (esterase enzyme [2]): 97.9 ± 1.4%; Effect of solutions on stability, Activity (%) 30% Solution (esterase enzyme [2]): 100.2 ± 5.6%
[Cl-].[Cl-].[Co+2] [CoCl2]	–	–	–	–	Activity (%) (1 mM metal) (esterase enzyme [4]): 112.7 ± 3.4%; Activity (%) (5 mM metal) (esterase enzyme [4]): 3.6 ± 1.0%
O=S(=O)([O-])[O-].[Cu+2] [CuSO4]	–	–	117.5 ± 5	1.4 ± 1.1	–
CN(C)C=O [DMF, dimethyl formamide]	–	–	–	–	Effect of solutions on activity, Activity (%) (esterase enzyme [1]): 33.2 ± 7.0%; Effect of solutions on stability, Activity (%) 15% Solution (esterase enzyme [2]): 121.3 ± 1.6%; Effect of solutions on stability, Activity (%) 30% Solution (esterase enzyme [2]): 105.3 ± 1.6%
C[S+](C)[O-] [DMSO, dimethyl sulphoxide]	–	–	–	–	Effect of solutions on activity, Activity (%) (esterase enzyme [1]): 92%; Effect of solutions on stability, Activity (%) 15% Solution (esterase enzyme [2]): 106.1 ± 0.9%; Effect of solutions on stability, Activity (%) 30% Solution (esterase enzyme [2]): 102.2 ± 4.8%
O=C(O)CN(CCN(CC(=O)O)CC(=O)O)CC(=O)O [EDTA, ethylene diamine tetraacetic acid]	89.6 ± 1.7	66.5 ± 1.2	–	–	–
O=C(O)CN(CCOCCOCCN(CC(=O)O)CC(=O)O)CC(=O)O [EGTA, ethylene glycol tetraacetic acid]	–	–	–	–	Activity (%) (1 mM inh.) (esterase enzyme [3]): 100.2 ± 2.1%; Activity (%) (5 mM inh.) (esterase enzyme [3]): 87.6 ± 3.9%
O=S(=O)([O-])[O-].[Fe+2] [FeSO4]	–	–	115.7 ± 2.3	0.0	–
[Cl-].[K+] [KCl]	–	–	127.9 ± 3.9	98.2 ± 3.4	–
[Cl-].[Cl-].[Mg+2] [MgCl2]	–	–	130.2 ± 0.6	104.6 ± 3	–
O=S(=O)([O-])[O-].[Mn+2] [MnSO4]	–	–	130.4 ± 0.4	110.3 ± 3.5	–
[Cl][Ni][Cl] [NiCl2]	–	–	110.4 ± 6.1	0.5	–
O=S(=O)(F)Cc1ccccc1 [PMSF, phenylmethanesulfonyl fluoride]	1.3 ± 0.1	0.2	–	–	–
CCCCCCCCCCCCOS(=O)(=O)[O-].[Na+] [SDS, sodium dodecyl sulphate]	85.6 ± 2.9	5.0 ± 0.8	–	–	–
O=S(=O)([O-])[O-].[Zn+2] [ZnSO4]	–	–	6.1 ± 3.1	1.3 ± 1.2	–
NP-40	101.9 ± 6.8	89.1 ± 1.5	–	–	–
Triton X-100	105.3 ± 2.4	87.7 ± 3.2	–	–	–
Tween-80	107.2 ± 7.9	80.7 ± 2.2	–	–	–
